Earlier results, collected in patent publication US6517822B1, “Formulations and methods for straightening hair” (priority 1998, dated 2003).

Legend:
[1] = molarity of 0.1

In the case of CC(=O)O [acetic acid], the “solute ionized at equilibrium” value (0.01 mole in a liter of water at room temperature) is listed as “about 4%”, the acetic acid ionized (0.1 mol, final volume 1 liter) is listed as 1.3% and the electrical conductivity [1] is listed as 4.67 reciprocal ohms (mho).

For CC(N)=O [Acetamide], the “tumor finding from oral exposure” value (animal studies) is given as “liver tumors”.
